{"source": "patent US20060149045A1", "about": "“Steroid compounds with anti-tumor activity” (priority 2002, published 2006)", "key": {"[1]": {"tested_on": "U-373 MG, Hs578T and/or A549 cancer cells", "assay": "Cell migration, summary over the cell lines", "format": "cell-based", "details": "at the weak studied concentrations; result in words", "procedure": "(§1) Cells of different cancer lines, i.e. U-373 MG (Glioma cancer), Hs578T (breast cancer) and A549 (lung cancer) were seeded on culture flask 48 hours before the migration experiment. On the test day, cells were treated with or without compounds UBS881, UBS1664, UBS3285, UBS3327 and UBS3328 in closed Falcon dishes containing a buffered medium at a controlled temperature (37.0±0.1° C.) for 12 or 24 hours. The compounds were administered at two non-cytotoxic concentrations (10^−6 M and 10^−7 M) for UBS881 and UBS1664, and at 4 concentrations (10^−7 M to 10^−10 M) for UBS3285, UBS3327 and UBS3328. Migration of the cells was observed by means of a CCD-camera mounted on a phase-contrast microscope. A statistical analyse of the migration, with the non-parametric Mann-Whitney test, was established for 25% of the most motile cells and for the entire cell population for UBS881 and UBS1664, and established for 25%-50% of the most motile cells and for the entire cell population for UBS3285, UBS3327 and UBS3328 compounds. The table F below illustrates the anti-migratory effect of the compound according to the invention."}, "[2]": {"tested_on": "six human cancer cell lines (Hs683, U-373 MG, HCT-15, LoVo, A549, J82)", "assay": "MTT test, summary over the six cell lines", "format": "cell-based", "details": "for cytotoxic / anti-tumor activity on the 6 tested cell lines: result in words, FIGS. 3, 4 and 6", "procedure": "In order to characterize the in vitro activities of the compounds according to the invention, MTT tests were carried out. The MTT test, which is a well-known test in the art, is an indirect technique that rapidly measures, i.e. within 5 days, the effect of a given product on the overall cell growth. This test measures the number of metabolically active living cells that are able to transform the MTT product (3-(4,5-dimethylthiazol-2-yl)-2,5 diphenyl tetrazolium bromide), having a yellowish color, to the blue product formazan dye by mitochondrial reduction. The amount of formazan obtained at the end of the experiment is measured with a spectrophotometer and is directly proportional to the number of living cells. Determination of the optical density enables a quantitative measurement of the effect of the investigated compounds as compared to the control condition (untreated cells) and to compare it to other reference compound. In the following examples different compounds according to the invention were tested and compared to the reference compound being UBS881.\nSix human cancer cell lines, described in Table D, were tested in the presence of the extract according to the invention. These cell lines represent four histological cancer types, being glioma cancer (cell line Hs683 and U-373 MG), colon cancer (cell lineHCT-15 and LoVo), lung cancer (cell line A549) and bladder cancer (cell line J82). […]\nAfter 72 hours of incubation at 37° C. with the compound (experimental conditions) or without the compound (control condition), the medium was replaced by 100 μl MTT at the concentration of 1 mg/ml dissolved in RPMI. […] The micro wells were shaken for 5 minutes and read on a spectrophotometer at the wavelengths of 570 nm corresponding to the maximum formazan absorbance wavelength, and of 630 nm, which is the background noise wavelength.\nFor each experimental condition, the mean OD associated with the SEM (standard error of the mean) for each condition (6 wells) was calculated. The percentage of remaining living cells in comparison with the control was calculated. […]"}, "A549 (lung cancer) cells": {"tested_on": "A549 (lung cancer) cells", "assay": "Cell migration, phase-contrast video microscopy", "format": "cell-based, human", "procedure": "as §1"}, "[3]": {"tested_on": "U-373 MG (Glioma cancer) cells", "assay": "Cell migration, phase-contrast video microscopy", "format": "cell-based, human", "procedure": "as §1"}, "[4]": {"tested_on": "Hs578T (breast cancer) cells", "assay": "Cell migration, phase-contrast video microscopy", "format": "cell-based", "details": "for 24 hours on the 25% of most motile cells, at 10^−7 M", "procedure": "as §1"}, "[5]": {"details": "for 24 hours on the 25% of most motile cells, at 10^−7 M"}}}
{"smiles": "COc1ccc(OC)c(C2CC3C4CC(=O)C5=CC(=O)CCC5(C)C4CCC3(C)C2C(C)=O)c1", "note": "(centres unmarked) [UBS1664]", "values": [{"measurement": "migration level of cancer cells", "setting": "[1]", "value": "induced a decrease in the migration level"}, {"measurement": "cytotoxic / anti-tumor activity on the 6 tested cell lines", "setting": "[2]", "value": "induced cytotoxic activity on all 6 tested cell lines"}, {"measurement": "Max. effects (anti-migratory effect)", "setting": "A549 (lung cancer) cells; for 12 hours on the entire cell population, at 10^−7 M", "value": "−15", "unit": "%/p < 0.05"}, {"measurement": "Max. effects (anti-migratory effect)", "setting": "[3]; [5]", "value": "−27", "unit": "%/p < 0.001"}]}
{"smiles": "COc1ccc(OC)c(C(C)(O)C2CCC3C4CC=C5CC(O)CCC5(C)C4CCC32C)c1", "note": "(centres unmarked) [UBS1740]", "values": [{"measurement": "cytotoxic / anti-tumor activity on the 6 tested cell lines", "setting": "[2]", "value": "Hs683 and A549 cell lines were most sensitive"}]}
{"smiles": "COc1ccc(OC)c(C(C)(O)C2CCC3C4CC(=O)C5=CC(=O)CCC5(C)C4CCC32C)c1", "note": "(centres unmarked) [UBS1819]", "values": [{"measurement": "IC50", "setting": "[2]; Homo sapiens, 72 hours incubation, range over all 6 cell lines", "value": "10 to 50", "unit": "µM"}]}
{"smiles": "COc1ccc(OC)c(C2CC3C4CC=C5CC(OC6O[C@H](CO)[C@H](O)[C@H](O)[C@H]6O)CCC5(C)C4CCC3(C)C2C(C)=O)c1", "note": "(some centres unmarked) [UBS3285]", "values": [{"measurement": "migration level of cancer cells", "setting": "[1]", "value": "induced a decrease in the migration level"}, {"measurement": "Max. effects (anti-migratory effect)", "setting": "[3]; for 24 hours on the 50% of most motile cells, at 10^−8 M", "value": "−22", "unit": "%/p < 0.001"}]}
{"smiles": "COc1ccc(OC)c(C2CC3C4CC=C5CC(OC6O[C@H](CO)[C@@H](O[C@@H]7O[C@H](CO)[C@@H](O)[C@H](O)[C@H]7O)[C@H](O)[C@H]6O)CCC5(C)C4CCC3(C)C2C(C)=O)c1", "note": "(some centres unmarked) [UBS3327]", "values": [{"measurement": "migration level of cancer cells", "setting": "[1]", "value": "induced a decrease in the migration level"}, {"measurement": "Max. effects (anti-migratory effect)", "setting": "A549 (lung cancer) cells; for 24 hours on the 25% of most motile cells, at 10^−8 M", "value": "−34", "unit": "%/p < 0.001"}, {"measurement": "Max. effects (anti-migratory effect)", "setting": "[4]", "value": "−21", "unit": "%/p < 0.001"}]}
{"smiles": "COc1ccc(OC)c(C2CC3C4CC=C5CC(OC6O[C@H](CO[C@@H]7O[C@H](CO)[C@@H](O)[C@H](O)[C@H]7O)[C@@H](O)[C@H](O)[C@H]6O)CCC5(C)C4CCC3(C)C2C(C)=O)c1", "note": "(some centres unmarked) [UBS3328]", "values": [{"measurement": "migration level of cancer cells", "setting": "[1]", "value": "induced a decrease in the migration level"}, {"measurement": "Max. effects (anti-migratory effect)", "setting": "A549 (lung cancer) cells; [5]", "value": "−40", "unit": "%/p < 0.001"}, {"measurement": "Max. effects (anti-migratory effect)", "setting": "[3]; for 12 hours on the entire cell population, at 10^−10 M", "value": "−27", "unit": "%/p < 0.001"}]}
